Data published in ChEMBL document CHEMBL5126669, “Discovery of 5,7-Dihydro-6H-pyrrolo[2,3-d]pyrimidin-6-ones as Highly Selective CDK2 Inhibitors” (ACS Med Chem Lett, 2022).
Blank lines part the entries; values can stand above or below the molecule they belong to.

Legend:
[1] = molecular target: Cyclin-dependent kinase 2/cyclin E1 (Homo sapiens, UniProt P24941); experiment: Inhibition of recombinant human N-terminal GST-tagged full-length CDK2/Flag-tagged cyclinE1 expressed in baculovirus expression system using eIF4E-binding protein-1 peptide as substrate incubated for 1 hr in presence of ATP by HTRF assay
[2] = Inhibition of CDK1/cyclin B (unknown origin) in presence of ATP; design: species or system Homo sapiens
[3] = species: Homo sapiens; experiment: Selectivity ratio of IC50 for inhibition of CDK1/cyclin B (unknown origin) to IC50 for inhibition recombinant human N-terminal GST-tagged full-length CDK2/Flag-tagged cyclinE1 expressed in baculovirus expression system
[4] = species: Homo sapiens; experiment: Selectivity ratio of IC50 for inhibition of CDK4/cyclin D1 (unknown origin) to IC50 for inhibition recombinant human N-terminal GST-tagged full-length CDK2/Flag-tagged cyclinE1 expressed in baculovirus expression system
[5] = species: Homo sapiens; experiment: Selectivity ratio of IC50 for inhibition of CDK6/cyclin D1 (unknown origin) to IC50 for inhibition recombinant human N-terminal GST-tagged full-length CDK2/Flag-tagged cyclinE1 expressed in baculovirus expression system
[6] = molecular target: Cyclin-dependent kinase 2 (Homo sapiens, UniProt P24941); experiment: Inhibition of CDK2 in human COV318 cells incubated for overnight in presence of human whole blood by HTRF assay; type: cell-based
[7] = Intrinsic clearance in human liver microsomes at 1 uM measured upto 30 mins by LC/MS analysis; type: ADME, Microsome; conditions: read-out: CLH (converted)
[8] = species: Homo sapiens; experiment: Selectivity ratio of IC50 for inhibition of CDK4 (unknown origin) to IC50 for inhibition recombinant human N-terminal GST-tagged full-length CDK2/Flag-tagged cyclinE1 expressed in baculovirus expression system; conditions: tested as the 2H-labelled form
[9] = species: Homo sapiens; experiment: Selectivity ratio of IC50 for inhibition of CDK1 (unknown origin) to IC50 for inhibition recombinant human N-terminal GST-tagged full-length CDK2/Flag-tagged cyclinE1 expressed in baculovirus expression system; conditions: tested as the 2H-labelled form
[10] = species: Homo sapiens; experiment: Selectivity ratio of IC50 for inhibition of CDK7 (unknown origin) to IC50 for inhibition recombinant human N-terminal GST-tagged full-length CDK2/Flag-tagged cyclinE1 expressed in baculovirus expression system; conditions: tested as the 2H-labelled form
[11] = species: Homo sapiens; experiment: Selectivity ratio of IC50 for inhibition of CDK9 (unknown origin) to IC50 for inhibition recombinant human N-terminal GST-tagged full-length CDK2/Flag-tagged cyclinE1 expressed in baculovirus expression system; conditions: tested as the 2H-labelled form
[12] = species: Homo sapiens; experiment: Selectivity ratio of IC50 for inhibition of CDK6 (unknown origin) to IC50 for inhibition recombinant human N-terminal GST-tagged full-length CDK2/Flag-tagged cyclinE1 expressed in baculovirus expression system; conditions: tested as the 2H-labelled form

IC50 [1]: 5 nM
IC50 [2]: 170 nM
Structure (SMILES): CC1(C)Cc2cnc(Nc3ccc(S(N)(=O)=O)cc3)nc2N(C2CCCC2)C1=O

IC50 [1]: 161 nM
IC50 [2]: > 5000 nM
Structure (SMILES): CN1Cc2cnc(Nc3ccc(S(N)(=O)=O)cc3)nc2C(C)(C)C1=O

IC50 [1]: 431 nM
Structure (SMILES): Cc1nn(C)cc1-c1ccnc(Nc2ccc(S(=O)(=O)N3CCOCC3)cc2)n1

IC50 [1]: 1.6 nM
Ratio IC50 [3]: 480
Ratio IC50 [4]: 29
Ratio IC50 [5]: 24
IC50 [6]: 460 nM
predicted hepatic clearance at 1 µM [7]: 11.7 mL/min/kg
Structure (SMILES): CNS(=O)(=O)c1ccc(Nc2ncc3c(n2)N([C@@H](C)C2CC2)C(=O)C32CC2)cc1

IC50 [1]: 236 nM
IC50 [2]: > 5000 nM
Structure (SMILES): CS(=O)(=O)N1CCC(Nc2ncc3c(n2)N(C2CCCC2)C(=O)C32CCC2)CC1

IC50 [1]: 82 nM
IC50 [2]: > 5000 nM
Structure (SMILES): CS(=O)(=O)N1CCC(Nc2ncc3c(n2)N(C2CCCCC2)C(=O)C32CC2)CC1

IC50 [1]: 1.8 nM
Ratio IC50 [3]: 250
Ratio IC50 [4]: 29
Ratio IC50 [5]: 28
IC50 [6]: 770 nM
predicted hepatic clearance at 1 µM [7]: > 18.3 mL/min/kg
Structure (SMILES): C[C@@H]1CCC[C@H]1N1C(=O)C2(CC2)c2cnc(Nc3ccc(S(=O)(=O)NCCO)cc3)nc21 (relative stereo)

IC50 [1]: 875 nM
Structure (SMILES): CS(=O)(=O)N1CCC(Nc2ncc3c(n2)N(CC(F)F)C(=O)C32CC2)CC1

IC50 [1]: 0.25 nM
Ratio IC50 [3]: 1200
Ratio IC50 [4]: 1000
Ratio IC50 [5]: 230
IC50 [6]: 670 nM
predicted hepatic clearance at 1 µM [7]: 13.3 mL/min/kg
Ratio IC50 [8]: 770
Ratio IC50 [9]: 1200
Ratio IC50 [10]: 17000
Ratio IC50 [11]: 8200
Ratio IC50 [12]: 230
Structure (SMILES): CNS(=O)(=O)c1ccc(Nc2ncc3c(n2)N([C@@H]2CCC[C@@H](O)C2)C(=O)C32CC2)cc1

IC50 [1]: 87 nM
IC50 [2]: > 5000 nM
Structure (SMILES): CC1(C)C(=O)N(C2CCCC2)c2nc(NC3CCN(S(C)(=O)=O)CC3)ncc21

IC50 [1]: 2800 nM
Structure (SMILES): Cc1nn2cnc3[nH]ccc3c2c1C1CCCCC1
